Data as given in patent US7872134B2, “2-{[2-(substituted amino)ethyl]sulfonyl}ethyl N,N-bis(2-chloroethyl)phosphorodiamidates” (Telik, Inc., priority 2007, dated 2011).

Tests used:
[1] = test system: DLD-1 (colorectal adenocarcinoma); assay: Cytotoxicity/Growth Inhibition Assay (CellTiter-Glo); format: cell-based; details: Homo sapiens, 96 h, DLD-1 cells, hydrochloride salts, cultured 4 days
Description: The following examples illustrate the beneficial effect of the compounds of this invention against human cancer cell lines in vitro.
The human cancer cell line DLD-1 (colorectal adenocarcinoma) was obtained from the American Type Culture Collection, Manassas, Va., U.S.A. The CellTiter-Glo assay kit was obtained from Promega Corporation, Madison, Wis., U.S.A. All products were used in accordance with manufacturer's directions. All assays were conducted in triplicate wells, with dimethyl sulfoxide (DMSO) solvent control. The extent of cell growth was expressed as a percentage of the signal from the solvent control wells.
Log-phase cells were trypsinized, collected by centrifugation, and resuspended in a small volume of fresh medium, and the density of viable cells was determined following Trypan Blue staining. Cells were diluted in fresh media (3×10^3 cells/mL for DLD-1), and added at 150 μL/well to 96-well plates, and incubated for several hours to allow attachment in the case of adherent cells. […] After incubation for 10 minutes at room temperature, and the plate was read with a luminometer.

MIA PaCa-2 tumor = assay: MiaPaCa-2 Xenograft Assay, Intraperitoneal Administration; format: in vivo, athymic nu/nu mice; details: for tumor mass inhibition relative to vehicle: autopsy day 19 after transplantation
Description: Male athymic nu/nu mice, 6-8 weeks old (approximately 20 g), were implanted subcutaneously in the right fore flank with 20-30 mg pieces of MIA PaCa-2 tumor harvested from similar nu/nu mice that had previously been implanted with the MIA PaCa-2 tumor. […] A group of mice was treated with compound 1A as the hydrochloride salt dissolved in aqueous 5% dextrose, at 100 mg/Kg by intraperitoneal injection once/day for 5 consecutive days; with vehicle and cyclophosphamide (30 mg/Kg) also administered by intraperitoneal injection for the same time. Tumor mass was estimated from volume on days 10, 13, and 17; and measured at autopsy on day 19 after transplantation.

Structure (SMILES) | IC50 [1] | tumor mass inhibition relative to vehicle (MIA PaCa-2 tumor; 100 mg/Kg intraperitoneal once/day for 5 consecutive days, hydrochloride salt) | safety at the dose tested (MIA PaCa-2 tumor; nu/nu mice, 100 mg/Kg intraperitoneal once/day for 5 days) | tumor mass inhibition relative to vehicle (MIA PaCa-2 tumor; 30 mg/Kg intraperitoneal once/day for 5 consecutive days)
N[C@@H](CCC(=O)N[C@@H](CS(=O)(=O)CCOP(=O)(N(CCCl)CCCl)N(CCCl)CCCl)C(=O)N[C@@H](C(=O)O)c1ccccc1)C(=O)O [canfosfamide, reference compound] | 11 µM | – | – | –
CCN(CC)CCS(=O)(=O)CCOP(N)(=O)N(CCCl)CCCl (centres unmarked) [compound 1A, 2-{[2-(diethylamino)ethyl]sulfonyl}ethyl N,N-bis(2-chloroethyl)phosphorodiamidate] | 13 µM | 83% | safe and non-toxic | –
O=P1(N(CCCl)CCCl)NCCCO1 (centres unmarked) [cyclophosphamide, reference compound] | – | – | – | 84%
